Measurements as given in PubChem BioAssay AID330 (DTP/NCI, 2004).
Values joined by “and” are separate entries in the source; they are usually repeats but may differ in a detail not shown here. Identical values can stand only once. Inconclusive results and toxic doses are left out.

Tested on: P388 leukemia ip, CD2F1 mice, survival T/C
Assay: NCI In Vivo Anticancer Drug Screen. Data for tumor model P388 Leukemia (intraperitoneal) in CD2F1 (CDF1) mice
Settings: endpoint: median survival time, higher = longer survival
In short: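 Mice carrying the transplanted tumor received test compound or vehicle. Survival was recorded in each group, and the value is the treated-group measurement divided by that of the vehicle-treated control group.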

[1] = dose: 60.0 mg/kg/injection, schedule: Q01DX005 (ip), vehicle: saline with Tween-80
[2] = dose: 120.0 mg/kg/injection, schedule: Q01DX005 (ip), vehicle: saline with Tween-80
[3] = dose: 240.0 mg/kg/injection, schedule: Q01DX005 (ip), vehicle: saline with Tween-80
[4] = dose: 50.0 mg/kg/injection, schedule: Q01DX005 (ip), vehicle: Klucel (hydroxypropylcellulose) (HPC)
[5] = dose: 100.0 mg/kg/injection, schedule: Q01DX005 (ip), vehicle: Klucel (hydroxypropylcellulose) (HPC)
[6] = dose: 6.25 mg/kg/injection, schedule: Q01DX009 (ip), vehicle: saline with Tween-80
[7] = dose: 12.5 mg/kg/injection, schedule: Q01DX009 (ip), vehicle: saline with Tween-80
[8] = dose: 25.0 mg/kg/injection, schedule: Q01DX009 (ip), vehicle: saline with Tween-80
[9] = dose: 50.0 mg/kg/injection, schedule: Q01DX009 (ip), vehicle: saline with Tween-80
[10] = dose: 100.0 mg/kg/injection, schedule: Q01DX009 (ip), vehicle: saline with Tween-80
[11] = dose: 200.0 mg/kg/injection, schedule: Q01DX009 (ip), vehicle: saline with Tween-80
[12] = dose: 50.0 mg/kg/injection, schedule: Q01DX009 (ip), vehicle: Klucel (hydroxypropylcellulose) (HPC)
[13] = dose: 100.0 mg/kg/injection, schedule: Q01DX009 (ip), vehicle: Klucel (hydroxypropylcellulose) (HPC)

For `CC(C)C1=CC2=C(C(=O)C1=O)C13CCCC(C)(C)C1CC2OC3=O` (configuration not stated), the T/C (dose: 7.0 mg/kg/injection, schedule: Q01DX005 (ip), vehicle: saline with Tween-80) was 105 % of control, the T/C (dose: 14.0 mg/kg/injection, schedule: Q01DX005 (ip), vehicle: saline with Tween-80) was 104 % of control and the T/C (dose: 28.0 mg/kg/injection, schedule: Q01DX005 (ip), vehicle: saline with Tween-80) was 109 % of control.

In the case of `Cc1ccc2[nH]c(C)c(C(=O)c3cccnc3)c2c1`, the T/C (dose: 100.0 mg/kg/injection, schedule: Q04DX003 (ip), vehicle: Klucel (hydroxypropylcellulose) (HPC)) is reported as 92 % of control, the T/C (dose: 200.0 mg/kg/injection, schedule: Q04DX003 (ip), vehicle: Klucel (hydroxypropylcellulose) (HPC)) is reported as 91 % of control and the T/C (dose: 400.0 mg/kg/injection, schedule: Q04DX003 (ip), vehicle: Klucel (hydroxypropylcellulose) (HPC)) is reported as 110 % of control.

For `Cc1ncc(C(=O)O)n1C(C)c1ccccc1` (configuration not stated), the T/C [1] was 108 % of control, the T/C [2] was 103 % of control and the T/C [3] was 110 % of control.

`COc1cccc2c1C(=O)c1c(O)c3c(c(O)c1C2=O)C[C@@](O)(C(O)CO)C[C@@H]3OC1CC(N(Cc2ccccc2)Cc2ccccc2)C(O)C(C)O1` (some centres not stated) was tested, and the T/C (dose: 6.25 mg/kg/injection, schedule: Q04DX003 (ip), vehicle: water) was 100 % of control, the T/C (dose: 12.5 mg/kg/injection, schedule: Q04DX003 (ip), vehicle: water) was 109 % of control and the T/C (dose: 25.0 mg/kg/injection, schedule: Q04DX003 (ip), vehicle: water) was 100 % of control. For the same compound, the T/C (dose: 50.0 mg/kg/injection, schedule: Q04DX003 (ip), vehicle: water) was 170 % of control and the T/C (dose: 100.0 mg/kg/injection, schedule: Q04DX003 (ip), vehicle: water) was 209 % of control and 212 % of control.

For `CC[CH](C)[Sn](=[O])[c]1ccccc1` (configuration not stated), the T/C (dose: 0.39 mg/kg/injection, schedule: Q01DX009 (ip), vehicle: saline) was 101 % of control, the T/C (dose: 0.79 mg/kg/injection, schedule: Q01DX009 (ip), vehicle: saline) was 117 % of control and the T/C (dose: 3.12 mg/kg/injection, schedule: Q01DX009 (ip), vehicle: saline with Tween-80) was 153 % of control.

In the case of `CCOC(=O)/C(=C\c1c(OC(C)=O)cn2c(C)cccc12)C(C)=O`, the T/C (dose: 100.0 mg/kg/injection, schedule: Q01DX001 (ip), vehicle: saline with Tween-80) is reported as 98 % of control, the T/C (dose: 200.0 mg/kg/injection, schedule: Q01DX001 (ip), vehicle: saline with Tween-80) is reported as 94 % of control and the T/C (dose: 400.0 mg/kg/injection, schedule: Q01DX001 (ip), vehicle: saline with Tween-80) is reported as 94 % of control.

`COc1ccc2nc(N=Nc3ccc(N4CCOCC4)cc3C)sc2c1` was tested, and the T/C (dose: 100.0 mg/kg/injection, schedule: Q01DX001 (ip), vehicle: Klucel (hydroxypropylcellulose) (HPC)) was 86 % of control, the T/C (dose: 200.0 mg/kg/injection, schedule: Q01DX001 (ip), vehicle: Klucel (hydroxypropylcellulose) (HPC)) was 86 % of control and the T/C (dose: 400.0 mg/kg/injection, schedule: Q01DX001 (ip), vehicle: Klucel (hydroxypropylcellulose) (HPC)) was 88 % of control.

`O=C1OC(C(Cl)(Cl)Cl)Nc2ccccc21` (configuration not stated) was tested, and the T/C [4] was 111 % of control and the T/C [5] was 111 % of control.

`ClC(Cl)(Cl)c1nc2nccnc2[nH]1` was tested, and the T/C [6] was 88 % of control, the T/C [7] was 100 % of control and the T/C [8] was 107 % of control and 90 % of control.

With `O=C1/C(=C/N2CCN(c3ccccc3)CC2)Cc2c(Cl)cccc21` the T/C (dose: 100.0 mg/kg/injection, schedule: Q04DX002 (ip), vehicle: Klucel (hydroxypropylcellulose) (HPC)) was 105 % of control, the T/C (dose: 200.0 mg/kg/injection, schedule: Q04DX002 (ip), vehicle: Klucel (hydroxypropylcellulose) (HPC)) was 114 % of control and the T/C (dose: 400.0 mg/kg/injection, schedule: Q04DX002 (ip), vehicle: Klucel (hydroxypropylcellulose) (HPC)) was 102 % of control.

For `COC(=O)CC1C=CC(OC)[C@@]2(C)C(=O)C=C(C)C(=O)[C@@H]12` (some centres not stated), the T/C [1] was 110 % of control, the T/C [2] was 106 % of control and the T/C [3] was 106 % of control.

`Cc1ccc2nc(C)cc(N=[N+]=[N-])c2c1` was tested, and the T/C [1] was 95 % of control and the T/C [2] was 89 % of control.

`CCOC(=O)c1ccc(N(CCNc2cnc(NC(C)=O)[nH]c2=O)C(C)=O)cc1` was tested, and the T/C [8] was 92 % of control, the T/C [9] was 88 % of control and the T/C [10] was 92 % of control. For the same compound, the T/C [11] was 89 % of control.

For `c1cncc(-c2n[nH]c3c2CCCc2ccccc2-3)c1`, the T/C (dose: 12.5 mg/kg/injection, schedule: Q01DX009 (ip), vehicle: other) was 107 % of control, the T/C (dose: 25.0 mg/kg/injection, schedule: Q01DX009 (ip), vehicle: other) was 100 % of control and the T/C (dose: 50.0 mg/kg/injection, schedule: Q01DX009 (ip), vehicle: other) was 107 % of control. For the same compound, the T/C (dose: 100.0 mg/kg/injection, schedule: Q01DX009 (ip), vehicle: other) was 96 % of control and the T/C (dose: 200.0 mg/kg/injection, schedule: Q01DX009 (ip), vehicle: other) was 105 % of control.

In the case of `CCOc1nc2ccccc2nc1OCC`, the T/C [4] is reported as 95 % of control and the T/C [5] is reported as 104 % of control.

With `CSC(=S)NS(=O)(=O)c1cccs1` the T/C [12] was 98 % of control and the T/C [13] was 91 % of control.

`CC1(OC(=O)c2ccccc2)CC(C)(C)[N+]([O-])=N1` (configuration not stated) was tested, and the T/C (dose: 12.5 mg/kg/injection, schedule: Q01DX005 (ip), vehicle: other) was 97 % of control, the T/C (dose: 25.0 mg/kg/injection, schedule: Q01DX005 (ip), vehicle: other) was 98 % of control and the T/C (dose: 50.0 mg/kg/injection, schedule: Q01DX005 (ip), vehicle: other) was 100 % of control. For the same compound, the T/C (dose: 100.0 mg/kg/injection, schedule: Q01DX005 (ip), vehicle: other) was 90 % of control and the T/C (dose: 200.0 mg/kg/injection, schedule: Q01DX005 (ip), vehicle: other) was 93 % of control.

With `CCOC(=O)c1c[nH]c2ccc(N(CCCl)CCCl)cc12` the T/C (dose: 5.33 mg/kg/injection, schedule: Q04DX003 (ip), vehicle: saline with Tween-80) was 160 % of control, the T/C [6] was 150 % of control and the T/C (dose: 8.0 mg/kg/injection, schedule: Q04DX003 (ip), vehicle: saline with Tween-80) was 160 % of control. For the same compound, the T/C (dose: 12.0 mg/kg/injection, schedule: Q04DX003 (ip), vehicle: saline with Tween-80) was 170 % of control, the T/C [7] was 181 % of control and the T/C (dose: 18.0 mg/kg/injection, schedule: Q04DX003 (ip), vehicle: saline with Tween-80) was 185 % of control. For the same compound, the T/C [8] was 109 % of control.

`O=C1C(C2(O)C(=O)Nc3ccccc32)CCCC1C1(O)C(=O)Nc2ccccc21` (configuration not stated) was tested, and the T/C (dose: 60.0 mg/kg/injection, schedule: Q01DX005 (ip), vehicle: Klucel (hydroxypropylcellulose) (HPC)) was 90 % of control, the T/C (dose: 120.0 mg/kg/injection, schedule: Q01DX005 (ip), vehicle: Klucel (hydroxypropylcellulose) (HPC)) was 87 % of control and the T/C (dose: 240.0 mg/kg/injection, schedule: Q01DX005 (ip), vehicle: Klucel (hydroxypropylcellulose) (HPC)) was 89 % of control.

With `CCn1c(=O)c2[nH]c(-n3c(Cl)nc4c3c(=O)n(CC)c(=O)n4CC)nc2n(CC)c1=O` the T/C [12] was 101 % of control, the T/C [13] was 98 % of control and the T/C (dose: 200.0 mg/kg/injection, schedule: Q01DX009 (ip), vehicle: Klucel (hydroxypropylcellulose) (HPC)) was 120 % of control.

For `C=C1C(=O)OCC1C(=O)OCC` (configuration not stated), the T/C (dose: 100.0 mg/kg/injection, schedule: Q04DX003 (ip), vehicle: saline with Tween-80) was 103 % of control, the T/C (dose: 200.0 mg/kg/injection, schedule: Q04DX003 (ip), vehicle: saline with Tween-80) was 107 % of control and the T/C (dose: 400.0 mg/kg/injection, schedule: Q04DX003 (ip), vehicle: saline with Tween-80) was 98 % of control.

In the case of `Cc1cc(C(N)=O)c[n+](C)c1`, the T/C (dose: 50.0 mg/kg/injection, schedule: Q01DX005 (ip), vehicle: saline) is reported as 100 % of control, the T/C (dose: 100.0 mg/kg/injection, schedule: Q01DX005 (ip), vehicle: saline) is reported as 105 % of control and the T/C (dose: 200.0 mg/kg/injection, schedule: Q01DX005 (ip), vehicle: saline) is reported as 107 % of control.

With `CC#CC#C/C(=C/C=CC(=O)OC)SC` the T/C (dose: 12.5 mg/kg/injection, schedule: Q01DX009 (ip), vehicle: Klucel (hydroxypropylcellulose) (HPC)) was 110 % of control, the T/C (dose: 25.0 mg/kg/injection, schedule: Q01DX009 (ip), vehicle: Klucel (hydroxypropylcellulose) (HPC)) was 106 % of control and the T/C [12] was 101 % of control. The T/C [13] was 104 % of control.

With `Cc1ccc(S(=O)(=O)N/N=C(\Cc2ccccc2)c2ccc(Br)cc2)cc1` the T/C [9] was 99 % of control, the T/C [10] was 99 % of control and the T/C (dose: 100.0 mg/kg/injection, schedule: Q01DX009 (ip), vehicle: saline) was 98 % of control. For the same compound, the T/C [11] was 90 % of control and the T/C (dose: 200.0 mg/kg/injection, schedule: Q01DX009 (ip), vehicle: saline) was 98 % of control.
